A value given as a limit tells only on which side of the number the result lay.

The values below come from ChEMBL document CHEMBL5614422, “Design, synthesis and biological evaluation of N-salicyloyl tryptamine derivatives as multifunctional neuroprotectants for the treatment of ischemic stroke” (Eur J Med Chem, 2024).

Test system in the first data set: not listed separately
The data set can be described thus: Cytotoxicity against mouse HT-22 cells assessed as cell viability incubated for 24 hrs by CCK-8 method. The class given is toxicity, cell-based.
Details: not given
A general note: Formazan colour is commonly taken as a measure of viable cells.
`Cc1ccc(O)c(C(=O)NCCc2c[nH]c3ccccc23)c1`: the IC50 at 24 h was found to be 51.1 µM.
On the same count and under the same terms, next, `COc1ccc2[nH]cc(CCNC(=O)c3ccc(C)cc3O)c2c1`: over 100 µM; `COc1ccc(C(=O)NCCc2c[nH]c3ccccc23)c(O)c1`: 52.6 µM; `COc1ccc(O)c(C(=O)NCCc2c[nH]c3ccccc23)c1`: over 100 µM.
The same measure, in the same setting: next, `Cc1ccc(C(=O)NCCc2c[nH]c3cc(C)ccc23)c(O)c1`: over 100 µM; `CNc1ccc2[nH]cc(CCNC(=O)c3ccc(C)cc3O)c2c1`: over 100 µM; `Cc1ccc(C(=O)NCCc2c[nH]c3cc(Cl)ccc23)c(O)c1`: 63.1 µM.
The same measure, in the same setting: next, `O=C(NCCc1c[nH]c2ccccc12)c1ccc(Br)cc1O`: over 100 µM.
For the molecule `O=C(NCCc1c[nH]c2ccccc12)c1cc(Br)ccc1O`, the IC50 at 24 h was 64.7 µM.
In the case of `O=C(NCCc1c[nH]c2ccccc12)c1ccc(Cl)cc1O`, the IC50 at 24 h was determined as 99.7 µM.
Same read-out and setting: next, `COc1cc(Cl)c2c(CCNC(=O)c3ccc(C)cc3O)c[nH]c2c1`: over 100 µM; `Cc1ccc(C(=O)NCCc2c[nH]c3cc(F)cc(F)c23)c(O)c1`: 61.9 µM.
Still for that read-out and setting: next, `COc1cc2[nH]cc(CCNC(=O)c3ccc(C)cc3O)c2cc1OC`: 54.6 µM; `Cc1ccc(C(=O)NCCc2c[nH]c3cccc(F)c23)c(O)c1`: 84.6 µM; `Cc1ccc(C(=O)NCCc2c[nH]c3cc(F)ccc23)c(O)c1`: over 100 µM.
The same measure, in the same setting: next, `Cc1ccc(C(=O)NCCc2c[nH]c3cccc(Br)c23)c(O)c1`: over 100 µM; `Cc1ccc(C(=O)NCCc2c[nH]c3ccc(C)cc23)c(O)c1`: over 100 µM.
Turning to `Cc1ccc(C(=O)NCCc2c[nH]c3c(Cl)cccc23)c(O)c1`, the IC50 at 24 h was over 100 µM.
Still for that read-out and setting: next, `Cc1ccc(C(=O)NCCc2c[nH]c3c(Br)cccc23)c(O)c1`: over 100 µM; `Cc1ccc(C(=O)NCCc2c[nH]c3cccc(C)c23)c(O)c1`: over 100 µM; `Cc1ccc(C(=O)NCCc2c[nH]c3cccc(Cl)c23)c(O)c1`: over 100 µM.
On the same count and under the same terms, next, `Cc1ccc(C(=O)NCCc2c[nH]c3ccc(Br)cc23)c(O)c1`: 76.1 µM; `O=C(NCCc1c[nH]c2ccccc12)c1c(O)cccc1F`: over 100 µM.

In another data set the test system is HT-22. The data set can be described thus: Neuroprotective activity against OGD/R induced cell damage in mouse HT-22 cells assessed as cell viability at 10 uM measured after 24 hrs by MTT assay (reference value: 69.01 +/-2.90%). The class given is functional. Particulars: read-out: Activity.
With `Cc1ccc(O)c(C(=O)NCCc2c[nH]c3ccccc23)c1`, the viability at 10 µM is 76.5%.
Still for that read-out and setting: next, `COc1ccc2[nH]cc(CCNC(=O)c3ccc(C)cc3O)c2c1`: 74%.
For `COc1ccc(C(=O)NCCc2c[nH]c3ccccc23)c(O)c1`, the viability at 10 µM came out at 86.9%.
Same read-out and setting: next, `COc1ccc(O)c(C(=O)NCCc2c[nH]c3ccccc23)c1`: 88.5%; `Cc1ccc(C(=O)NCCc2c[nH]c3cc(C)ccc23)c(O)c1`: 60.2%; `CNc1ccc2[nH]cc(CCNC(=O)c3ccc(C)cc3O)c2c1`: 82.4%.
On to `Cc1ccc(C(=O)NCCc2c[nH]c3cc(Cl)ccc23)c(O)c1`, for which the viability at 10 µM was 64.6%.
On to `O=C(NCCc1c[nH]c2ccccc12)c1ccc(Br)cc1O`, for which the viability at 10 µM is 76.2%.
Regarding `O=C(NCCc1c[nH]c2ccccc12)c1cc(Br)ccc1O`, the viability at 10 µM was found to be 73.4%.
Same read-out and setting: next, `O=C(NCCc1c[nH]c2ccccc12)c1ccc(Cl)cc1O`: 65.8%; `COc1cc(Cl)c2c(CCNC(=O)c3ccc(C)cc3O)c[nH]c2c1`: 60.1%; `Cc1ccc(C(=O)NCCc2c[nH]c3cc(F)cc(F)c23)c(O)c1`: 89.2%.
Same read-out and setting: next, `COc1cc2[nH]cc(CCNC(=O)c3ccc(C)cc3O)c2cc1OC`: 75%; `Cc1ccc(C(=O)NCCc2c[nH]c3cccc(F)c23)c(O)c1`: 94.5%.
Same read-out and setting: next, `Cc1ccc(C(=O)NCCc2c[nH]c3cc(F)ccc23)c(O)c1`: 77.7%.
As to `Cc1ccc(C(=O)NCCc2c[nH]c3cccc(Br)c23)c(O)c1`, the viability at 10 µM was 73.1%.
Same read-out and setting: next, `Cc1ccc(C(=O)NCCc2c[nH]c3ccc(C)cc23)c(O)c1`: 89.5%; `Cc1ccc(C(=O)NCCc2c[nH]c3c(Cl)cccc23)c(O)c1`: 74.8%.
Same read-out and setting: next, `Cc1ccc(C(=O)NCCc2c[nH]c3c(Br)cccc23)c(O)c1`: 78.1%; `Cc1ccc(C(=O)NCCc2c[nH]c3cccc(C)c23)c(O)c1`: 52.4%.
Still for that read-out and setting: next, `Cc1ccc(C(=O)NCCc2c[nH]c3cccc(Cl)c23)c(O)c1`: 71.1%; `Cc1ccc(C(=O)NCCc2c[nH]c3ccc(Br)cc23)c(O)c1`: 67.8%; `O=C(NCCc1c[nH]c2ccccc12)c1c(O)cccc1F`: 87.7%.

Test system in another data set: not listed separately
The data set can be described thus: Cytotoxicity against mouse BV-2 cells assessed as cell viability incubated for 24 hrs by CCK-8 method. It is filed as toxicity, cell-based.
Details: not given
`Cc1ccc(O)c(C(=O)NCCc2c[nH]c3ccccc23)c1`: the IC50 at 24 h was 50.2 µM.
The same measure, in the same setting: next, `COc1ccc2[nH]cc(CCNC(=O)c3ccc(C)cc3O)c2c1`: over 100 µM; `COc1ccc(C(=O)NCCc2c[nH]c3ccccc23)c(O)c1`: 68 µM.
Same read-out and setting: next, `COc1ccc(O)c(C(=O)NCCc2c[nH]c3ccccc23)c1`: 51 µM.
Turning to `Cc1ccc(C(=O)NCCc2c[nH]c3cc(C)ccc23)c(O)c1`, the IC50 at 24 h was over 100 µM.
With `CNc1ccc2[nH]cc(CCNC(=O)c3ccc(C)cc3O)c2c1`, the IC50 at 24 h was 95.4 µM.
The same measure, in the same setting: next, `Cc1ccc(C(=O)NCCc2c[nH]c3cc(Cl)ccc23)c(O)c1`: 52.5 µM.
On the same count and under the same terms, next, `O=C(NCCc1c[nH]c2ccccc12)c1ccc(Br)cc1O`: over 100 µM.
In the case of `O=C(NCCc1c[nH]c2ccccc12)c1cc(Br)ccc1O`, the IC50 at 24 h was found to be 68.2 µM.
Same read-out and setting: next, `O=C(NCCc1c[nH]c2ccccc12)c1ccc(Cl)cc1O`: 53.4 µM.
Same read-out and setting: next, `COc1cc(Cl)c2c(CCNC(=O)c3ccc(C)cc3O)c[nH]c2c1`: over 100 µM; `Cc1ccc(C(=O)NCCc2c[nH]c3cc(F)cc(F)c23)c(O)c1`: 32.7 µM; `COc1cc2[nH]cc(CCNC(=O)c3ccc(C)cc3O)c2cc1OC`: 26.5 µM.
Same read-out and setting: next, `Cc1ccc(C(=O)NCCc2c[nH]c3cccc(F)c23)c(O)c1`: 81.7 µM; `Cc1ccc(C(=O)NCCc2c[nH]c3cc(F)ccc23)c(O)c1`: over 100 µM; `Cc1ccc(C(=O)NCCc2c[nH]c3cccc(Br)c23)c(O)c1`: over 100 µM.
Turning to `Cc1ccc(C(=O)NCCc2c[nH]c3ccc(C)cc23)c(O)c1`, the IC50 at 24 h turned out to be 79.3 µM.
In the case of `Cc1ccc(C(=O)NCCc2c[nH]c3c(Cl)cccc23)c(O)c1`, the IC50 at 24 h is 62.2 µM.
Take `Cc1ccc(C(=O)NCCc2c[nH]c3c(Br)cccc23)c(O)c1`: the IC50 at 24 h stood at 52.8 µM.
Still for that read-out and setting: next, `Cc1ccc(C(=O)NCCc2c[nH]c3cccc(C)c23)c(O)c1`: over 100 µM; `Cc1ccc(C(=O)NCCc2c[nH]c3cccc(Cl)c23)c(O)c1`: 89.1 µM; `Cc1ccc(C(=O)NCCc2c[nH]c3ccc(Br)cc23)c(O)c1`: 88.6 µM.
Same read-out and setting: next, `O=C(NCCc1c[nH]c2ccccc12)c1c(O)cccc1F`: over 100 µM.

Test system in a further data set: not listed separately
The experiment in a line: Antioxidant activity assessed as trolox equivalent of ORAC radical scavenging activity at 0.125 to 2 uM by AAPH based automatic microplate reader analysis. The class given is functional. Particulars: dose 0.125-2 µM.
For the molecule `Cc1ccc(C(=O)NCCc2c[nH]c3cccc(F)c23)c(O)c1`, the Activity worked out at 3.7.
In the case of `Cc1ccc(C(=O)NCCc2c[nH]c3ccc(C)cc23)c(O)c1`, the Activity came out at 3.1.

In another data set the test system is HT-22. The experiment in a line: Anti-apoptotic activity in OGD/R mouse HT-22 cells assessed as viable cells at 10 uM by annexin V-FITC and PI staining based flow cytometry analysis (reference value: 83.09%). It is filed as functional. Particulars: read-out: Activity. For orientation: A flow cytometer gives signals particle by particle.
Consider `COc1ccc(O)c(C(=O)NCCc2c[nH]c3ccccc23)c1`, for which the viability at 10 µM is 89.1%.

The test system of the next data set is HT-22. The experiment in a line: Anti-apoptotic activity in OGD/R mouse HT-22 cells assessed as early apoptotic cells at 10 uM by annexin V-FITC and PI staining based flow cytometry analysis (reference value: 9.51%). The class given is functional.
Details: not given
Take `COc1ccc(O)c(C(=O)NCCc2c[nH]c3ccccc23)c1`: the Activity worked out at 5.54%.

The subject of a further data set is HT-22. The data set can be described thus: Anti-apoptotic activity in OGD/R mouse HT-22 cells assessed as late apoptotic cells at 10 uM by annexin V-FITC and PI staining based flow cytometry analysis (reference value: 7.26%).
Details: not given
The class given is functional.
In the case of `COc1ccc(O)c(C(=O)NCCc2c[nH]c3ccccc23)c1`, the Activity was 5.18%.

The subject of a further data set is HT-22. The data set can be described thus: Anti-apoptotic activity in OGD/R mouse HT-22 cells assessed as necrotic cells at 10 uM by annexin V-FITC and PI staining based flow cytometry analysis (reference value: 0.14%). The class given is functional.
Details: not given
Regarding `COc1ccc(O)c(C(=O)NCCc2c[nH]c3ccccc23)c1`, the Activity amounted to 0.16%.

By IC50 is commonly meant the point on the concentration scale where inhibition reaches its midpoint.
